This is an account of results in US12172989B2, “Histone acetyltransferase (HAT) inhibitor and use thereof” (SHANGHAI INSTITUTE OF MATERIA MEDICA, CHINESE ACADEMY OF …, priority 2018, dated 2024).

For orientation: IC50 means the concentration at which inhibition is half-maximal.

For test [1], the target named is T1, histone acetyltransferase p300 (Homo sapiens, UniProt Q09472).
T1 construct: purchased BPS Corporation 50071
T1 sequence (Q09472 1284-1673 limits assumed): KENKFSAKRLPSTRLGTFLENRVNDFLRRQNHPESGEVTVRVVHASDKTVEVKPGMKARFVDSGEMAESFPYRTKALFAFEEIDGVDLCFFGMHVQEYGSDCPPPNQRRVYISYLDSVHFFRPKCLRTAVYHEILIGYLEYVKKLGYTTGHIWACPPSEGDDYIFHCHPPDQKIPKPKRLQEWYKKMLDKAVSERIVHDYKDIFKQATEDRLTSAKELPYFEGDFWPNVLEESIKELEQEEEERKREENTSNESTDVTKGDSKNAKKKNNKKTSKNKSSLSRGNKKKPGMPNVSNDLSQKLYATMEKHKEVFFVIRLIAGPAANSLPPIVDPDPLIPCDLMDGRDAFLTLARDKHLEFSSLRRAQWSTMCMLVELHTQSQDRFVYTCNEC
Kind of test: Histone acetyltransferase (p300) activity assay (radioisotope, [3H]-Ac-CoA). Type of test: biochemical. Particulars: p300 0.05 nM; histone peptide 600 nM, [3H]-Ac-CoA 250 nM; 60 min at room temperature; read-out: Inhibition rate IC50. Summed up: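 p300 (0.05 nM final) was preincubated 15 min with compound (0.25–5000 nM final), then reacted 60 min at room temperature with histone peptide (600 nM) and [3H]-Ac-CoA (250 nM). The reaction was stopped with cold Ac-CoA, and peptide-bound radioactivity was captured on Flashplate and counted to derive IC50.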

Test [2] has as its system Human castration resistant prostate cancer cell line LNCaP clone FGC. Kind of test: Cell growth inhibition experiment (CellTiter-Glo), LNCaP clone FGC. Format: cell-based. Particulars: Homo sapiens, 120 h, LNCaP clone FGC cells treated with the compound for 5 days. The method, then:
(§1) Human castration resistant prostate cancer cell line 22Rv1 and LNCaP clone FGC (22Rv1 cell line was from ATCC, CRL-2505, LNCaP clone FGC cell line was purchased from Cell Bank of the Chinese Academy of Sciences) were cultured with RPMI 1640 medium (Gibco, available from Life Technologies Corporation, 22400-089) containing 10% fetal bovine serum (Gibco, available from Life Technologies, 10099-141) and 1% antibiotics (penicillin and streptomycin, available from Life Technologies Corporation, 10378016) in a CO2 cell incubator (37° C., 5% CO2). In the cell growth inhibition experiment, 22Rv1 and LNCaP clone FGC cells in exponential growth phase were seeded on a 96-well plate (purchased from Corning Company, 3599) with a volume of 150 μL/well and a cell density of 1,500 cells/well. After seeded, the plate was placed in a CO2 incubator to incubate overnight to allow the cells to adhere. On the next day, 50 μL of a compound at different concentrations diluted in 3-fold gradient or DMSO were added in a 96-well plate containing the cells. The final concentration of the compound ranges from 0.3 to 10000 nM, and the final concentration of DMSO is 0.05% as control group. The cells were treated by the compound for 5 days. Cell viability was measured using CellTiter-Glo reagent (purchased from Promega, G7572): the cell treated with the compound for 5 days was added with CellTiter-Glo reagent at 40 μL/well, incubated at room temperature for 10 min, transferred to a white 96-well plate (OptiPlate-96, purchased from PerkinElmer, 605299) by 70 μL. Subsequently, the luminescence signal was detected using a multifunctional microplate reader EnVision (purchased from PerkinElmer) at a wavelength of 400-700 nm. The data was analyzed by using GraphPad Prism 5.0 software to obtain IC50.

The subject of test [3] is Human castration resistant prostate cancer cell line 22Rv1. As to the kind of experiment: Cell growth inhibition experiment (CellTiter-Glo), 22Rv1. Type of test: cell-based. Particulars: Homo sapiens, 120 h, 22Rv1 cells treated with the compound for 5 days. The method, then: as §1
For orientation: ATP-based viability assays read luminescence as a measure of living cells.

For test [4], the system named is human mantle cell lymphoma (MCL) cell line MAVER-1. As to the kind of experiment: Cell growth inhibition experiment (CellTiter-Glo), MAVER-1. Conditions: Homo sapiens, Maver1, 120 h, MAVER-1 cells treated with the compound for 5 days. Type of test: cell-based. The protocol: The human mantle cell lymphoma (MCL) cell line MAVER-1 (from ATCC, CRL-3008) was cultured with RPMI 1640 medium (Gibco, available from Life Technologies Corporation, 22400-089) containing […] (Gibco, available from Life Technologies, 10099-141) and 1% antibiotics (penicillin and streptomycin, available from Life Technologies Corporation, 10378016) in a CO2 cell incubator (37° C., 5% CO2). In the cell growth inhibition experiment, MAVER-1 cells in exponential growth phase were seeded on a 96-well plate (purchased from Corning Company, 3599) in a volume of 100 μL/well and a cell density of 1*10E5 cells/well. After seeded, the plate was placed in a CO2 incubator to culture for 1 h. 100 μL of a compound at different concentrations diluted in 3-fold gradient or DMSO were added in a 96-well plate containing the cells. The final concentration of the compound ranges from 0.3 to 10000 nM, and the final concentration of DMSO is 0.05% as control group. The cells were treated with the compound for 5 days. Cell viability was measured using CellTiter-Glo reagent (purchased from Promega, G7572): the cells treated with the compound for 5 days was added with CellTiter-Glo reagent at 20 μL/well, incubated at room temperature for 10 min, transferred to a white 96-well plate (OptiPlate-96, purchased from PerkinElmer, 605299) by 80 μL. Subsequently, the luminescence signal was detected by using a multifunctional microplate reader EnVision (purchased from PerkinElmer) at a wavelength of 400-700 nm. The data was analyzed by using GraphPad Prism 5.0 software to obtain IC50.

As to `CNC(=O)Nc1ccc2c(c1)CC[C@]21OC(=O)N(CC(=O)N2Cc3ccc(F)cc3CC[C@H]2C2CC2)C1=O` [SYY-B025-1], the IC50 stood at 1.6 nM in test [1], 67 nM in test [2], 79 nM in test [3] and 44 nM in test [4].
The corresponding values for `CNC(=O)Nc1ccc2c(c1)CC[C@@]21OC(=O)N(CC(=O)N2Cc3ccc(F)cc3CC[C@H]2C2CC2)C1=O` [SYY-B025-2] are 1.1 nM, 11 nM, 9 nM and 9 nM.
Regarding `CNC(=O)Nc1ccc2c(c1)CC[C@@]21OC(=O)N(CC(=O)N2Cc3ccc(F)cc3CC[C@@H]2C2CC2)C1=O` [SYY-B026-2], the IC50 worked out at 18 nM in test [1], 132 nM in test [2], 358 nM in test [3] and 254 nM in test [4].
Turning to `CNC(=O)Nc1ccc2c(c1)CC[C@@]21OC(=O)N(CC(=O)N2Cc3ccccc3CC[C@H]2C(F)(F)F)C1=O` [SYY-B027-2], the IC50 in test [1] was 3.1 nM; in test [2] it was 14 nM; in test [3] it was 23 nM; in test [4], 13 nM.
The corresponding values for `CNC(=O)Nc1ccc2c(c1)CC[C@]21OC(=O)N(CC(=O)N2Cc3cc(F)ccc3OC[C@H]2C2CC2)C1=O` [SYY-B029-1] are 4.1 nM, 82 nM, 146 nM and 66 nM.
For the compound `CNC(=O)Nc1ccc2c(c1)CC[C@]21OC(=O)N(CC(=O)N2Cc3ccc(F)cc3CC[C@H]2C(F)(F)F)C1=O` [SYY-B031-1], the IC50 in test [1] was determined as 1.8 nM; in test [2], 91 nM; in test [3], 210 nM; in test [4] it was 61 nM.
Take `CNC(=O)Nc1ccc2c(c1)CC[C@@]21OC(=O)N(CC(=O)N2Cc3ccc(F)cc3CC[C@H]2C(F)(F)F)C1=O` [SYY-B031-2]: the IC50 in test [1] amounted to 1.9 nM; in test [2] it was 66 nM; in test [3], 23 nM; in test [4] it was 18 nM.
